The values that follow come from patent publication US9084779B2, “Conjugates of nitroimidazoles and their use as chemotherapeutic agents” (The Johns Hopkins University, priority 2011, dated 2015).

The structures appear in SMILES notation. Converted amounts (≈) assume the structure as drawn. Bounds are passed on as bounds.

The subject of series [1] is subcutaneous LNCaP prostate cancer cell explants. Kind of series: Immunofluorescence analysis of 2-nitroimidazole induced protein adducts in mouse tumor explants. The format is in vivo, nude mice. As to conditions: daily intravenous tail vein injection for three weeks. As for the experimental part:
Immunofluorescence analysis of 2-nitroimidazole induced protein adducts in mouse tumor explants. Nude mice with subcutaneous LNCaP prostate cancer cell explants were administered Hydroxyprobe-1, M3N or M3N-PEG-2NI for three weeks by daily intravenous tail vein injection with an additional injection 3 hours prior to euthanization. Tumors were removed from the euthanized mice by dissection and incubated in 30% sucrose/PBS overnight at 4° C. Excess sucrose was removed and the tissue was incubated in 30% sucrose/PBS:OCT (1:1) for 1 hour at room temperature. Afterward the tissue was frozen in 100% OCT. Frozen sections of […] were prepared and fixed in 4% PFA/PBS for 1 hour at room temperature. The sections were blocked overnight at 4° C. with 5% goat serum/PBS or at room temperature for 1 hour and then incubated with Hydroxyprobe-1 rabbit antiserum (1:200) overnight at 4° C. After three washes with PBS, the secondary antibody, mouse anti rabbit-FITC (1:1000) was added for 1 hour at room temperature. The sections were mounted using Vectashield and fluorescently imaged.

Series [2] in a line: Determination of water solubility by UV absorbance of a saturated solution. It counts as physicochemical. To be noted: thermodynamic from solid; water, saturated solution, sonicated at 25° C., stirred at room temperature 1.0 h, filtered. As for the experimental part:
The aqueous solubility of all eight compounds was assessed by using a technique involving measurement of their UV absorbance^29.
Determination of Water Solubility of Compounds 7a-d and 10a-d. A saturated solution was prepared by addition of a test compound (7a-d and 10a-d; ca. 1.00 mg) to water (1.00 mL), which was sonicated at 25° C. for 5.0 min and stirring at room temperature for an additional 1.0 h. After filtration with Millipore filters (0.45-μm-pore-size polyvinylidene fluoride), the supernatant was analyzed by UV spectroscopy with concentration determined from absorbance, standardized against calibration data. Standard curves for each compound were obtained by plotting absorbance against concentration. The concentration range of the standard solutions was 1.0-10 μg/mL. For all standards, their curves were linear with γ>0.996.

Series [3] relates to orthotopic HT29 tumor implants. Kind of series: Orthotopic xenograft of HT29 human colorectal carcinoma in nude mice, systemic treatment. The format is in vivo, nude (Nu/Nu) mice. The method, then: Orthotopic Xenograft implantation of HT29 human colorectal carcinoma cells into nude mice. HT29 cells were grown in culture in McCoy's medium until sub-confluent. A single cell suspension of HT29 was then prepared in HBSS and 1×10^7 cells were injected subcutaneously into the flanks of four male T-cell deficient nude (Nu/Nu) mice. Subcutaneous tumors were allowed to grow for 14 days before harvesting and preparation for orthotopic implantation. The mice were euthanized and the subcutaneous tumors were removed using sterile technique. The tumors were divided into 3×3 mm pieces that were kept in phosphate buffered saline (PBS) on ice. T-cell deficient nude (NU/NU) mice (6 male, 5 female) were anesthetized by injecting 0.5 to 1.0 mL of Avertin (20 mM) intraperitoneally in PBS. The abdomen was prepped with 70% ethanol three times and a small nick was made in the skin. The abdominal wall musculature was grasped, lifted, and entered with a single blade of scissors. The single blade of the scissors was used to push the contents of the abdominal cavity away and the incision was extended 2-3 cm. The cecum was identified by its blind ending pouch and exteriorized. The cecum was isolated from the rest of the mouse using pre-cut, sterile gauze and kept moist with warm PBS. A figure of 8 stitches was placed onto the cecum using a 7-0 sized suture and the cecal wall was slightly damaged at the site where the HT29 tumor piece is to be implanted using forceps. An HT29 tumor piece was positioned on the cecum under the stitch and the stitch was then tied. The cecum was returned to the abdominal cavity. Using staples, the mouse abdominal wall musculature and skin was closed and the mouse was allowed to recover from anesthesia.
Systemic treatment with M3N-PEG-2NI (compound 7d). A 40 mM stock solution of M3N-PEG-2NI was prepared by dissolving 0.14 g of M3N-PEG-2NI (MW=616.3 g/mol) in 5.7 mL of CPE. Each day of treatment, 4 T-cell deficient nude mice (2 male, 2 female) bearing orthotopic HT29 tumor implants received 0.1 ml of 20 mM M3N-PEG-2NI via I.V. or I.P. injections. The remaining 4 T-cell deficient nude mice (2 male, 2 female) received 0.1 mL of CPE (FIG. 7) Body weight of mice was monitored every week, until significant body weight change occurred. Then, body weight was measured every other day until day 24. All 8 mice were euthanized on day 24. The mice were dissected and their major organs collected. Special attention was taken in examination of livers since liver metastasis is common in orthotopic colon cancer models.

[4] abbreviates: 0.1 ml of 20 mM I.V. or I.P., three weeks, euthanized day 24, listed as M3N-PEG-2NI.

As a reminder, the solubility is how much of the substance goes into solution per volume. Low values mean little dissolved substance, high ones much dissolved substance. Consider `COc1ccc(C[C@H](C)[C@H](C)Cc2ccc(OC)c(OCCOCCOCCOCCn3ccnc3[N+](=O)[O-])c2)cc1OC` (racemic) [Compound 7d, (±)-(2R,3S)-4-(3,4-Dimethoxyphenyl)-1-[4-methoxy-3-[12-(2-nitro-1H-imidazol-1-yl)-1,4,7,10-tetraoxadodecanyl]phenyl]-2,3-dimethylbutane], for which the “Protein adducts in tumor sections by immunofluorescence” value in series [1] is given as “Protein-adducts were also found”. The compound also gave a solubility at 1 h in series [2] of 13.2 µg/mL (≈ 21.5 µM). Further, the “Mean Primary Tumor and Mass” value in series [3] (0.1 ml of 20 mM I.V. or I.P., three weeks, euthanized day 24, listed as M3N-PEG-2N) amounted to 300 ± 140 mg; in series [3] (setting [4]) it was 300 ± 140 mg. In series [3] (setting [4]), the “Mean Abdominal Cavity Tumor Mass” value was found to be 75 ± 50 mg. The “Body Weight Increase” value in series [3] (0.1 ml of 20 mM I.V. or I.P., to day 24) is 11.3%. Moreover, in series [3] (primary tumor plus total tumor mass, 0.1 ml of 20 mM I.V. or I.P., day 24, listed as M3N-PEG-2NI), the “Mean Total Tumor Load” value came out at 375 ± 150 mg. Besides, the “Mice that developed liver metastasis” value in series [3] (treated group of 4 mice, day 24) is 1 of the 4. Moreover, the Peritoneal tumors result is “no peritoneal tumors” in series [3] (treated group, mice 5 (female) and 7 (male)); “a single, small peritoneal tumor” in series [3] (treated group, mice 6 (female) and 8 (male)). Besides, the “Tumor masses surrounding the kidneys and ovaries, weight each” value in series [3] (treated group, mouse 5) was less than 100 mg. The “Tumor surrounding the ovaries, weight” value in series [3] (treated group, mouse 6) was less than 100 mg.
